Values belong to the compound of their own block, whether it stands above or below them.
How the values were obtained:
[1] = tested on: Human non-small cell lung cancer cell line NCI-H1975; test: Inhibition of H1975 cell proliferation (CellTiter luminescent viability); type: cell-based; conditions: Table ID1, EGFR inhibitor-based; H1975, 96 hours; read-out: Inhibitory activity (IC50, nM) on tumor cell proliferation, H1975
Experimental: The tumor cells used herein were cultured in a cell culture medium listed in table 3 at 37 °C in an incubator with 5% CO2. Prior to experimentation, all cell lines used were correctly identified by STR profiling, and tested negative for mycoplasma contamination using a mycoplasma detection kit through routine screenings.
The IC50 values of the compounds of the present disclosure (including the compounds in Table 1, Table 2, and Examples 1-468) were determined using the CellTiter-Meiluncell Luminescent Cell Viability Assay Kit from Dalian Meilun Biotech Co., Ltd. The detailed procedure is as follows: Tumor cells were seeded in 96-well cell culture plates at the densities specified in Table 4. On the following day, the test compounds of the present disclosure were subjected to serial dilution. The dilution can be performed according to one of the following two methods: • (1) The first dilution method: The test compounds of the present disclosure (including the compounds in Table 1, Table 2, and Examples 1-468) were subjected to 5-fold serial dilutions starting from a highest concentration of 2000 μM, resulting in a total of 9 concentrations from high to low (2000, 400, 80, 16, 3.2, 0.64, 0.128, 0.0256, 0.00512 μM). Subsequently, 0.5 μL of the test compound dilution was transferred into the 96-well plate containing the cells, with each well containing 100 μL of cell culture medium. […] Into the 96-well plate, the diluted test compounds and corresponding detection reagents were added, resulting in final test compound concentrations of 500 nM and 10 nM, respectively. The experimental procedure is described below using the diluted 2 μM test compound as an example.
0.5 μL of the aforementioned diluted compound of the present disclosure (including the compounds in Table 1, Table 2, and Examples 1-468) was added to the seeded cells in 100 μL of medium, yielding a final test compound concentration of 10 nM. After the cells were treated with the compounds of the present disclosure for a specified period, the cell viability assay reagent was added to the culture medium according to the kit's instructions to determine cell viability. […] All controls were treated using the same procedure as the compounds of the present disclosure. The growth inhibition curves for the compounds of the present disclosure were plotted using Prism GraphPad software, and the IC50 values were calculated therefrom.

[2] = target: T1, human Cereblon WT GST-tagged protein (CRBN) (Homo sapiens, UniProt Q96SW2); test: CRBN binding by HTRF (Cereblon binding kit); conditions: for inhibition at 0.5 µM: read-out: Inhibition Rate at 0.5 μM (%); for inhibition at 2 µM: read-out: Inhibition Rate at 2 μM (%)
T1 construct: purchased CISBIO 64BDCRBNPEH
How it was run: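 GST-tagged human Cereblon WT was incubated 3 h at room temperature with compound, thalidomide-Re tracer and Eu anti-GST antibody. Final compound concentrations were 10 to 0.00064 µM (7 points) or 2 and 0.5 µM. Inhibition rate was calculated from HTRF 665/620 nm ratios versus solvent and blank controls.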

EGFR = target: T2, EGFR (Homo sapiens, UniProt P00533); test: Western blot degradation of EGFR; type: cell-based; conditions: H1975 Cell; 24 hours
T2 construct: L858R/T790M in cis, heterozygous with wild type), Western blot
Experimental: Conventional Western blot assay was performed to evaluate the effects of the compounds of the present disclosure on the expression of target proteins in cells.
(1) Cell Seeding and Protein Harvesting: The selected cells were processed according to the cell seeding procedure and protein harvesting procedure in Table II-2.
(2) To the collected supernatant, 5×SDS sample loading buffer was added, followed by denaturation at 95 °C for 5 minutes. The denatured samples were then separated by SDS-PAGE electrophoresis on a polyacrylamide gel. Proteins were transferred to a nitrocellulose membrane (0.45 μm NC membrane), blocked with blocking buffer at room temperature for 1 hour, and subjected to antibody incubation and development procedures according to the antibody manufacturer's instructions (Cell Signaling Technology).
Half-Maximal Degradation Concentration value (the drug concentration required for degrading proteins by 50%, abbreviated as DC50) reads method: comparing the grayscale values of Western blot bands from drug-treated samples with those from blank DMSO-treated controls, and identifying the drug concentration range at which the grayscale value is half that of the DMSO-treated control bands.
DC50 values can be calculated using ImageJ software to measure grayscale values of Western blot bands from drug-treated samples. The concentration-response curve is fitted to estimate the drug concentration corresponding to half the grayscale value.
Target protein remaining (%) refers to the percentage of target protein remaining in cells after treatment with protein degrader compounds.
Calculation method for target protein remaining (%): Use ImageJ software to measure grayscale values of Western blot bands from drug (protein degrader)-treated samples. The grayscale value of drug-treated bands is divided by that of internal control protein bands, and the resulting quotient is normalized to obtain the relative percentage of remaining target protein after protein degrader treatment.
Target protein degradation rate (%)=1−target protein remaining (%).

T2 sequence (P00533 25-1210): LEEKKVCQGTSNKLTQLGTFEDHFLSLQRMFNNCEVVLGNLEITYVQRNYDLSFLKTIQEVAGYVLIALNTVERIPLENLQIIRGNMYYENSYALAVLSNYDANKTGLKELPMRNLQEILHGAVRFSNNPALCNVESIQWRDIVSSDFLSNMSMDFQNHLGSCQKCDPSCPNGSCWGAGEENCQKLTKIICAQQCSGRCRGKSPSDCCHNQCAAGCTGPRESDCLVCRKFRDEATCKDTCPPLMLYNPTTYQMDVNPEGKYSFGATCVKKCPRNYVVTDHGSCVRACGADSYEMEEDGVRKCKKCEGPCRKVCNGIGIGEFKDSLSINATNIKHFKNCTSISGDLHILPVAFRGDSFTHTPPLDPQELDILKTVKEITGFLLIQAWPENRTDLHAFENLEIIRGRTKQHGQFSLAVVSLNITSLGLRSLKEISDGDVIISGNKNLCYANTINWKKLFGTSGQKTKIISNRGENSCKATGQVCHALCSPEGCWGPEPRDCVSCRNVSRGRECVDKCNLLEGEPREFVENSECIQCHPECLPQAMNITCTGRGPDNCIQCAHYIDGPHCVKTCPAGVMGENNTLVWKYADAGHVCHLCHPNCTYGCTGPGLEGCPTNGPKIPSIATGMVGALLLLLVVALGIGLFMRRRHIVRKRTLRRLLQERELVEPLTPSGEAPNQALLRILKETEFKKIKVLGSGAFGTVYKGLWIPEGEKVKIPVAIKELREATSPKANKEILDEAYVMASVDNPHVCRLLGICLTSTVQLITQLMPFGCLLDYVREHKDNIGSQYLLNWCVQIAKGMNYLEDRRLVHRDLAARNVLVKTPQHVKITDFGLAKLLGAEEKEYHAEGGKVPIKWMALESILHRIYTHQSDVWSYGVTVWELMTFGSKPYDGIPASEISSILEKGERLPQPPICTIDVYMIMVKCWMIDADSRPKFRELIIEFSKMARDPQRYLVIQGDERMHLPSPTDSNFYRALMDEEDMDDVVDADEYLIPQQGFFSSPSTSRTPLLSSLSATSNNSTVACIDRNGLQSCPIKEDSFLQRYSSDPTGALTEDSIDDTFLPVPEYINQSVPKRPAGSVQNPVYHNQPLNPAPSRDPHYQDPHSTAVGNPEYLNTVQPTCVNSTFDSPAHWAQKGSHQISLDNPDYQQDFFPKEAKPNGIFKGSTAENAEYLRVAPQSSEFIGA
T2 sequence (Q96SW2 whole entry partner): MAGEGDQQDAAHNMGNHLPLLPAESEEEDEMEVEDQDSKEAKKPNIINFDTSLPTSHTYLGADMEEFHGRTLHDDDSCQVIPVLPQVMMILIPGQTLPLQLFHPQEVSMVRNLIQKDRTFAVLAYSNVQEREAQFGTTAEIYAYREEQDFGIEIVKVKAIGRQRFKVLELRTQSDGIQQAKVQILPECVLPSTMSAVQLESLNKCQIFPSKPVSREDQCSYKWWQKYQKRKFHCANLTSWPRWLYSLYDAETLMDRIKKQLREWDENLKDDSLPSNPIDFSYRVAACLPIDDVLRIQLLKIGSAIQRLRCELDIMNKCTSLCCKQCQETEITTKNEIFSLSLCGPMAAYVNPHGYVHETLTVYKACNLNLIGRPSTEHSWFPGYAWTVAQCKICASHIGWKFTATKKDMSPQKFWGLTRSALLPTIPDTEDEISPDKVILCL
T1 sequence (Q96SW2 whole entry): as the sequence (Q96SW2 whole entry partner) above

inhibition at 0.5 µM [2]: 10 to 20% | inhibition at 2 µM [2]: 53 to 60% | Degradation of substrate protein EGFR (substrate protein remaining %) (EGFR): A (0%≤substrate protein remaining %≤80%)
SMILES: COC1CCN(c2nccc(Nc3cc4c(cn3)c(N3CCC(N(C)CC5CCN(c6cccc7c6C(=O)N(N6CCC(=O)NC6=O)C7=O)CC5)CC3)nn4C(C)C)n2)CC1 [GT-06119, 2-(2,4-dioxotetrahydropyrimidin-1(2H)-yl)-4-(4-(((1-(1-isopropyl-6-((2-(4-methoxypiperidin-1-yl)pyrimidin-4-yl)amino)-1H-pyrazolo[4,3-c]pyridin-3-yl)piperidin-4-yl)(methyl)amino)methyl)piperidin-1-yl)isoindoline-1,3-dione]

Degradation of substrate protein EGFR (substrate protein remaining %) (EGFR): A (0%≤substrate protein remaining %≤80%)
SMILES: COc1cc(N2CCC(N3CCN(Cc4ccc5c(c4)C(=O)N(N4CCC(=O)NC4=O)C5=O)CC3)CC2)c(C)cc1Nc1ncc(Br)c(Nc2ccc3nccnc3c2P(C)(C)=O)n1 [GT-06154, 5-((4-(1-(4-((5-bromo-4-((5-(dimethylphosphoryl)quinoxalin-6-yl)amino)pyrimidin-2-yl)amino)-5-methoxy-2-methylphenyl)piperidin-4-yl)piperazin-1-yl)methyl)-2-(2,4-dioxotetrahydropyrimidin-1(2H)-yl)isoindoline-1,3-dione]

IC50 [1]: 100 to 130 nM
SMILES: O=C1CCN(N2C(=O)c3ccc(CN4CCN(c5ccc(-c6cc(F)c7c(c6)C(=O)N(C(C(=O)Nc6nccs6)c6ncn8c6CCC8)C7)cc5)CC4)cc3C2=O)C(=O)N1 (stereo not shown) [GT-06160, 2-(6,7-dihydro-5H-pyrrolo[1,2-c]imidazol-1-yl)-2-(6-(4-(4-((2-(2,4-dioxotetrahydropyrimidin-1(2H)-yl)-1,3-dioxoisoindolin-5-yl)methyl)piperazin-1-yl)phenyl)-4-fluoro-1-oxoisoindolin-2-yl)-N-(thiazol-2-yl)acetamide]

IC50 [1]: 10 to 50 nM
SMILES: O=C1CCN(N2C(=O)c3cccc(N4CCC(CN5CCN(c6ccc(-c7cc(F)c8c(c7)C(=O)N(C(C(=O)Nc7nccs7)c7ncn9c7CCC9)C8)cc6)CC5)CC4)c3C2=O)C(=O)N1 (stereo not shown) [GT-06162, 2-(6,7-dihydro-5H-pyrrolo[1,2-c]imidazol-1-yl)-2-(6-(4-(4-((1-(2-(2,4-dioxotetrahydropyrimidin-1(2H)-yl)-1,3-dioxoisoindolin-4-yl)piperidin-4-yl)methyl)piperazin-1-yl)phenyl)-4-fluoro-1-oxoisoindolin-2-yl)-N-(thiazol-2-yl)acetamide]

IC50 [1]: < 10 nM
SMILES: O=C1CCN(N2Cc3cc(CN4C[C@H]5C[C@@H]4CN5c4ccc(-c5cc(F)c6c(c5)C(=O)N(C(C(=O)Nc5nccs5)c5ncn7c5CCC7)C6)cc4)ccc3C2=O)C(=O)N1 (stereo partly drawn) [GT-06172, 2-(6,7-dihydro-5H-pyrrolo[1,2-c]imidazol-1-yl)-2-(6-(4-((1R,4R)-5-((2-(2,4-dioxotetrahydropyrimidin-1(2H)-yl)-1-oxoisoindolin-5-yl)methyl)-2,5-diazabicyclo[2.2.1]heptan-2-yl)phenyl)-4-fluoro-1-oxoisoindolin-2-yl)-N-(thiazol-2-yl)acetamide]

IC50 [1]: 50 to 100 nM
SMILES: O=C1CCN(N2C(=O)c3ccc(CN4C[C@H]5C[C@@H]4CN5c4ccc(-c5cc(F)c6c(c5)C(=O)N(C(C(=O)Nc5nccs5)c5ncn7c5CCC7)C6)cc4)cc3C2=O)C(=O)N1 (stereo partly drawn) [GT-06173, 2-(6,7-dihydro-5H-pyrrolo[1,2-c]imidazol-1-yl)-2-(6-(4-((1R,4R)-5-((2-(2,4-dioxotetrahydropyrimidin-1(2H)-yl)-1,3-dioxoisoindolin-5-yl)methyl)-2,5-diazabicyclo[2.2.1]heptan-2-yl)phenyl)-4-fluoro-1-oxoisoindolin-2-yl)-N-(thiazol-2-yl)acetamide]

Degradation of substrate protein EGFR (substrate protein remaining %) (EGFR): A (0%≤substrate protein remaining %≤80%)
SMILES: CN(Cc1ccc2c(c1)C(=O)N(N1CCC(=O)NC1=O)C2=O)C1CCN(c2ccc(Nc3ncc4nc(Nc5ccccc5)n(C5CCCC5)c4n3)cc2)CC1 [GT-07113, 5-(((1-(4-((9-cyclopentyl-8-(phenylamino)-9H-purin-2-yl)amino)phenyl)piperidin-4-yl)(methyl)amino)methyl)-2-(2,4-dioxotetrahydropyrimidin-1(2H)-yl)isoindoline-1,3-dione]

The next lines start with the compound.

SMILES: CN(Cc1ccc2c(c1)C(=O)N(N1CCC(=O)NC1=O)C2=O)C1CCN(c2ccc(-c3cc(F)c4c(c3)C(=O)N(C(C(=O)Nc3nccs3)c3ncn5c3CCC5)C4)cc2)CC1 (stereo not shown) [GT-05196, 2-(6,7-dihydro-5H-pyrrolo[1,2-c]imidazol-1-yl)-2-(6-(4-(4-(((2-(2,4-dioxotetrahydropyrimidin-1(2H)-yl)-1,3-dioxoisoindolin-5-yl)methyl)(methyl)amino)piperidin-1-yl)phenyl)-4-fluoro-1-oxoisoindolin-2-yl)-N-(thiazol-2-yl)acetamide]
IC50 [1]: 10 to 50 nM

SMILES: CN(Cc1ccc2c(c1)CN(N1CCC(=O)NC1=O)C2=O)C1CCN(c2ccc(Nc3ncc4nc(Nc5ccccc5)n(C5CCCC5)c4n3)cc2)CC1 [GT-05842, 1-(5-(((1-(4-((9-cyclopentyl-8-(phenylamino)-9H-purin-2-yl)amino)phenyl)piperidin-4-yl)(methyl)amino)methyl)-1-oxoisoindolin-2-yl)dihydropyrimidine-2,4 (1H,3H)-dione]
inhibition at 0.5 µM [2]: 10 to 20% | inhibition at 2 µM [2]: 53 to 60% | Degradation of substrate protein EGFR (substrate protein remaining %) (EGFR): A (0%≤substrate protein remaining %≤80%)

SMILES: COC1CCN(c2nccc(Nc3cc4c(cn3)c(N3CCN(CC5CCN(c6cccc7c6C(=O)N(N6CCC(=O)NC6=O)C7=O)CC5)CC3)nn4C(C)C)n2)CC1 [GT-06035, 2-(2,4-dioxotetrahydropyrimidin-1(2H)-yl)-4-(4-((4-(1-isopropyl-6-((2-(4-methoxypiperidin-1-yl)pyrimidin-4-yl)amino)-1H-pyrazolo[4,3-c]pyridin-3-yl)piperazin-1-yl)methyl)piperidin-1-yl)isoindoline-1,3-dione]
Degradation of substrate protein EGFR (substrate protein remaining %) (EGFR): A (0%≤substrate protein remaining %≤80%)

SMILES: CC(C)n1nc(N2CCN(CC3CCN(c4ccc5c(c4)C(=O)N(N4CCC(=O)NC4=O)C5=O)CC3)CC2)c2cnc(Nc3ccnc(-c4cnn(S(=O)(=O)C5CC5)c4)n3)cc21 [GT-06073, 5-(4-((4-(6-((2-(1-(cyclopropylsulfonyl)-1H-pyrazol-4-yl)pyrimidin-4-yl)amino)-1-isopropyl-1H-pyrazolo[4,3-c]pyridin-3-yl)piperazin-1-yl)methyl)piperidin-1-yl)-2-(2,4-dioxotetrahydropyrimidin-1(2H)-yl)isoindoline-1,3-dione]
Degradation of substrate protein EGFR (substrate protein remaining %) (EGFR): A (0%≤substrate protein remaining %≤80%)

SMILES: CC(C)n1nc(N2CCC(N3CCN(Cc4ccc5c(c4)CN(N4CCC(=O)NC4=O)C5=O)CC3)CC2)c2cnc(Nc3ccnc(-c4cnn(S(=O)(=O)C5CC5)c4)n3)cc21 [GT-06077, 1-(5-((4-(1-(6-((2-(1-(cyclopropylsulfonyl)-1H-pyrazol-4-yl)pyrimidin-4-yl)amino)-1-isopropyl-1H-pyrazolo[4,3-c]pyridin-3-yl)piperidin-4-yl)piperazin-1-yl)methyl)-1-oxoisoindolin-2-yl)dihydropyrimidine-2,4 (1H,3H)-dione]
Degradation of substrate protein EGFR (substrate protein remaining %) (EGFR): A (0%≤substrate protein remaining %≤80%)

Source: patent US20260364184A1, “COMPOUND BASED ON OXOISOINDOLINYL-SUBSTITUTED TETRAHYDROPYRIMIDINE-DIONE AND USE THEREOF” (GLUETACS THERAPEUTICS (SHANGHAI) CO., LTD., priority 2023, published 2026)
